Measured values taken from patent publication US11884661B2, “3-substituted propionic acids as αV integrin inhibitors” (BRISTOL-MYERS SQUIBB COMPANY, priority 2016, dated 2024).
pIC50: −log10 of the molar value. Where a name gives a salt, the structure may show the parent alone.

Experiments:
human αVβ3 = human αVβ3 (Homo sapiens, UniProt P05106+P06756); experiment: human αVβ3 HTRF binding assay
Description: (§1) All binding assays used the HTRF (homogeneous time resolved fluorescence) technology from Cisbio International, therefore all assays are described as HTRF binding assays. The assay results for the Examples are listed above together with the characterization data. The HTRF binding assays are established for the following integrins: human αVβ6, human αVβ1, human αVβ3, human αVβ5, and human αVβ8. All assays used the following assay buffer: 20 mM Tris, pH 7.4, 1 mM MgCl2, 1 mM MnCl2, 0.01% Tween 20, and 0.01% BSA. Alternatively, a SPA-based assay was used for evaluation of receptor binding.
The following describes the components and a representative procedure for the human αVβ6 HTRF binding assay: Recombinant human αVβ6 Integrin (R & D systems, 3817-AV) was biotinylated. Biotinylated human αVβ6 Integrin was added to assay vessel at a final concentration of 1.25 nM. FITC-conjugated fibronectin (Cytoskeleton, FNR02) was then added at the final concentration of 5 nM. The mixture was centrifuged at 600 rpm for three minutes using Thermo Fisher Heraeus Multifuge X3 centrifuge and then incubated at RT for an hour. Streptavidin Terbium (Cisbio international 610STLB) was then added at the final concentration of 0.625 nM. The resulting mixture was centrifuged at 600 rpm for three minutes using Thermo Fisher Heraeus Multifuge X3 centrifuge and then incubated at room temperature overnight in dark before reading HTRF signals.

human αVβ6 = target: T1, human αVβ6 (Homo sapiens, UniProt P06756+P18564); experiment: human αVβ6 HTRF binding assay; settings: recombinant human αVβ6 integrin, FITC-conjugated fibronectin
T1 construct: purchased R & D systems 3817-AV
Outline: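 Biotinylated recombinant αVβ6 (1.25 nM final) incubated with FITC-fibronectin (5 nM) 1 h at RT, then streptavidin-terbium (0.625 nM) added and incubated overnight at RT in the dark before HTRF read. Buffer: 20 mM Tris pH 7.4, 1 mM MgCl2, 1 mM MnCl2, 0.01% Tween 20, 0.01% BSA.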

human αVβ8 = human αVβ8 (Homo sapiens, UniProt P06756+P26012); experiment: human αVβ8 HTRF binding assay
Description: as §1, with “binding. […]” for “binding.”

human αVβ5 = human αVβ5 (Homo sapiens, UniProt P06756+P18084); experiment: human αVβ5 HTRF binding assay
Description: as §1, with “binding. […]” for “binding.”

Chain of human αVβ8 (P06756 31-992 limits assumed): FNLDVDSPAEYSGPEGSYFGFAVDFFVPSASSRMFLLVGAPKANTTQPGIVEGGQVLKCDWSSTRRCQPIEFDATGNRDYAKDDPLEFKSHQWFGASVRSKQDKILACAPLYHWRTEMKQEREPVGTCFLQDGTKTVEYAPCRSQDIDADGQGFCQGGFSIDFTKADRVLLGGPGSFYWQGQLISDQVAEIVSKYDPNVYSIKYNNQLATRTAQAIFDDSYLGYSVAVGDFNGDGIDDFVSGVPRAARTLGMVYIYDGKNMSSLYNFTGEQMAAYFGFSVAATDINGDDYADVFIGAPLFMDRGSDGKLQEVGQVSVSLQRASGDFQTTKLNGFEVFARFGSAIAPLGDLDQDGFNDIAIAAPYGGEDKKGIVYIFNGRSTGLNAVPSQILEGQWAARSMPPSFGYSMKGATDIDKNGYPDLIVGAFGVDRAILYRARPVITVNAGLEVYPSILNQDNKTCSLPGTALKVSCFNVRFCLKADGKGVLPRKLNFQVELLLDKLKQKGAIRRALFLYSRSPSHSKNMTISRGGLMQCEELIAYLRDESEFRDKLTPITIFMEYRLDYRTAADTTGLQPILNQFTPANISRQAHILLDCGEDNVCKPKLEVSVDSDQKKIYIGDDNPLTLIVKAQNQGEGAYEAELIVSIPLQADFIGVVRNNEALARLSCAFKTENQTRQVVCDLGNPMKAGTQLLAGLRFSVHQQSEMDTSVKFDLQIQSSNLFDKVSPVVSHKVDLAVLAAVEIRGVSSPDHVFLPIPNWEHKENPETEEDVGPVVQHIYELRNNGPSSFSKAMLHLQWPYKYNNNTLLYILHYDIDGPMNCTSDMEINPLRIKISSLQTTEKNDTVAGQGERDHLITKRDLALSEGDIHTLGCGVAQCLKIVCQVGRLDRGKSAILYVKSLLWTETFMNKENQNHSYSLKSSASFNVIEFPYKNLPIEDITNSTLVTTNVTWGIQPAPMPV
Chain of human αVβ8 (P26012 43-684 limits assumed): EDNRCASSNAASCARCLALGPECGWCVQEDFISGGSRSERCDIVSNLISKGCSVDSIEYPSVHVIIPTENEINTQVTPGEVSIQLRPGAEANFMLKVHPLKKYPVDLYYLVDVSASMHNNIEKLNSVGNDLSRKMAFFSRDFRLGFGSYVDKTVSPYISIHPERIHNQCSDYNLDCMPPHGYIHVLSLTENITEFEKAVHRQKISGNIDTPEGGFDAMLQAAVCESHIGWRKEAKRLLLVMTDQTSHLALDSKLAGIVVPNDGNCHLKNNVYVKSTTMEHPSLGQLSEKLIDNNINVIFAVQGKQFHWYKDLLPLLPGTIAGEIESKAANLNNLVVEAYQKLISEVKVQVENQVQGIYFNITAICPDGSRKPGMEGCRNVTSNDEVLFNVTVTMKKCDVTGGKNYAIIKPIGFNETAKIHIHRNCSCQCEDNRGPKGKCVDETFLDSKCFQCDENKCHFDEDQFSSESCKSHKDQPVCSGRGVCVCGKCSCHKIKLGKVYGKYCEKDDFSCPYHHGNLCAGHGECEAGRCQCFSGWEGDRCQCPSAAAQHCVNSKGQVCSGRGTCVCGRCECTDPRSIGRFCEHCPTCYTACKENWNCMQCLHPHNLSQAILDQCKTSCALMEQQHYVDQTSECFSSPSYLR
Chain of human αVβ3 (P06756 31-992 limits assumed): as the sequence (P06756 31-992 limits assumed) above
Chain of human αVβ3 (P05106 27-718 limits assumed): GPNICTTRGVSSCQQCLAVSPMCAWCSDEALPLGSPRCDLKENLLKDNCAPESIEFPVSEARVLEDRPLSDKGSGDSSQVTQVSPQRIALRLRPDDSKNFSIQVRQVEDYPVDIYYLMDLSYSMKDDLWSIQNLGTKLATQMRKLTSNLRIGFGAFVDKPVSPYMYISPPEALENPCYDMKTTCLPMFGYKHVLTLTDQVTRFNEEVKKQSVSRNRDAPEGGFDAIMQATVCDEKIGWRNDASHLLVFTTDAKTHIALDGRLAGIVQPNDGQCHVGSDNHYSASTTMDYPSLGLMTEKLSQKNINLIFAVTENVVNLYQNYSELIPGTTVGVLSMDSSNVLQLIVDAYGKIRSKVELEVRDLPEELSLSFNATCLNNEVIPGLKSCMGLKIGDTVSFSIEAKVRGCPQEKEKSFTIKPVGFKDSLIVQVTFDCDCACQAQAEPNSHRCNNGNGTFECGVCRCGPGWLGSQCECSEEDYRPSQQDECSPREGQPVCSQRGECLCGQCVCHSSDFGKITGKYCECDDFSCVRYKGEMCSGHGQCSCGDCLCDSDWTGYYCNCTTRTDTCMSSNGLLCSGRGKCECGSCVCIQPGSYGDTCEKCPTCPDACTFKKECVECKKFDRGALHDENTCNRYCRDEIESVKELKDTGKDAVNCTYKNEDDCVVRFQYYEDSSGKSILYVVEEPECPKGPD
T1 sequence (P06756 31-992 limits assumed): as the sequence (P06756 31-992 limits assumed) above
T1 sequence (P18564 22-707 limits assumed): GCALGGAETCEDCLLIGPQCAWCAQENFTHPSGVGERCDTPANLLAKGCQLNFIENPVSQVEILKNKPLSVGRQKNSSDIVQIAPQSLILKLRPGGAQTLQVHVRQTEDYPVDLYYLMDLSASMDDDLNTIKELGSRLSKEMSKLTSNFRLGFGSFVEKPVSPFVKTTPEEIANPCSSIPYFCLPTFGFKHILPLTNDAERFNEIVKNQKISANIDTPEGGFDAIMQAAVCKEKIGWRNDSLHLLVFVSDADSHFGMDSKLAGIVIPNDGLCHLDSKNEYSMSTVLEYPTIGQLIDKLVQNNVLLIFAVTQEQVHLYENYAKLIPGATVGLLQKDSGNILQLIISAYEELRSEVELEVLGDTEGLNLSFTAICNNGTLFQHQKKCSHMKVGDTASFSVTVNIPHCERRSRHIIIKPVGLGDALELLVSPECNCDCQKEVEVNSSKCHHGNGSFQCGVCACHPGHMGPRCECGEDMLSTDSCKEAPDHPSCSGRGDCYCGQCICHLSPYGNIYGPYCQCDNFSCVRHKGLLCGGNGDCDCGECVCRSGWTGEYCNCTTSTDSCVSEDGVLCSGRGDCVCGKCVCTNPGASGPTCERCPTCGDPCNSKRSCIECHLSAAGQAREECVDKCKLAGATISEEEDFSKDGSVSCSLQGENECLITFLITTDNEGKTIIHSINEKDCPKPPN
Chain of human αVβ5 (P06756 31-992 limits assumed): as the sequence (P06756 31-992 limits assumed) above
Chain of human αVβ5 (P18084 24-719 limits assumed): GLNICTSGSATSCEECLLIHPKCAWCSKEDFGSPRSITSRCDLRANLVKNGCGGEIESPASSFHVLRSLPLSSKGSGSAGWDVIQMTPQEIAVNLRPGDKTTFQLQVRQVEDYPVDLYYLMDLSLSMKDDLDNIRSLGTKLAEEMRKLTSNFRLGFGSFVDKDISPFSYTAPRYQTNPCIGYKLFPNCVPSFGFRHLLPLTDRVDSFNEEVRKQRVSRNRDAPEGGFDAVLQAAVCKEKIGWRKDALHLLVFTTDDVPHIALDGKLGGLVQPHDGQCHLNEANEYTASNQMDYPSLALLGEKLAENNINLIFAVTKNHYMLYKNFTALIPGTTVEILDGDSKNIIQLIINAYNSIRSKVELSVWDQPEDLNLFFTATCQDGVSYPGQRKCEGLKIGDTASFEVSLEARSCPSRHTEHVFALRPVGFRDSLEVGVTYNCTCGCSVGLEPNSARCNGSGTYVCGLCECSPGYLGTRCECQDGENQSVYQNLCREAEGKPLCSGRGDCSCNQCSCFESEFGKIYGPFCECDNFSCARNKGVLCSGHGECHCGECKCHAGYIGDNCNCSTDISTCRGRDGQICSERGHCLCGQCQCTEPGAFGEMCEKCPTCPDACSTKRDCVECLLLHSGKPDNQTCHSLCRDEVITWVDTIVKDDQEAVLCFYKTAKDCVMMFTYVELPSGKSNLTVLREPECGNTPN

Row | SMILES | pIC50 (human αVβ3) | pIC50 (human αVβ6) | pIC50 (human αVβ8) | pIC50 (human αVβ5)
1 | COc1ccc(C(CC(=O)O)n2ccc(CCCCc3ccc4c(n3)NCCC4)n2)cn1 (racemic) [Example 1, (±)-3-(6-Methoxypyridin-3-yl)-3-(3-(4-(5,6,7,8-tetrahydro-1,8-naphthyridin-2-yl)butyl)-1H-pyrazol-1-yl)propanoic acid] | 8.62 | 8.22 | 6.58 | 8.82
2 | COc1ccc(C(CC(=O)O)n2ccc(CCCc3ccc4c(n3)NCCC4)n2)cn1 (racemic) [Example 2, (±)-3-(6-Methoxypyridin-3-yl)-3-(3-(3-(5,6,7,8-tetrahydro-1,8-naphthyridin-2-yl)propyl)-1H-pyrazol-1-yl)propanoic acid] | 8.57 | 8.17 | 6.38 | 9.47
3 | COc1ccc(C(CC(=O)O)n2ccc(OCCCc3ccc4c(n3)NCCC4)n2)cn1 (racemic) [Example 48, (±)-3-(6-Methoxypyridin-3-yl)-3-(3-(3-(5,6,7,8-tetrahydro-1,8-naphthyridin-2-yl)propoxy)-1H-pyrazol-1-yl)propanoic acid] | 8.12 | 7.54 | – | 8.57
4 | COc1cncc(C(CC(=O)O)n2ccc(CCCc3ccc4c(n3)NCCC4)n2)c1 (single isomer, unassigned) [Example 64, 3-(5-methoxypyridin-3-yl)-3-(3-(3-(5,6,7,8-tetrahydro-1,8-naphthyridin-2-yl)propyl)-1H-pyrazol-1-yl)propanoic acid] | 8.42 | 7.72 | 6.96 | –
5 | COc1cncc(C(CC(=O)O)n2ccc(CCCc3ccc4c(n3)NCCC4)n2)c1 (single isomer, unassigned) [Example 65, 3-(5-methoxypyridin-3-yl)-3-(3-(3-(5,6,7,8-tetrahydro-1,8-naphthyridin-2-yl)propyl)-1H-pyrazol-1-yl)propanoic acid] | 8.37 | 6.39 | – | 8.96
6 | Cn1cc([C@H](CC(=O)O)n2ccc(CCCc3ccc4c(n3)NCCC4)n2)ccc1=O [Example 45, (S)-3-(1-Methyl-6-oxo-1,6-dihydropyridin-3-yl)-3-(3-(3-(5,6,7,8-tetrahydro-1,8-naphthyridin-2-yl)propyl)-1H-pyrazol-1-yl)propanoic acid ditrifluoroacetic acid salt] | 8.80 | 8.80 | 5.52 | –
7 | CCOC(=O)C[C@@H](c1ccc(OC)nc1)n1ccc(CCCc2ccc3c(n2)NCCC3)n1 [Example 47, Ethyl (S)-3-(6-methoxypyridin-3-yl)-3-(3-(3-(5,6,7,8-tetrahydro-1,8-naphthyridin-2-yl)propyl)-1H-pyrazol-1-yl)propanoate] | 5.95 | 7.96 | – | 6.57
8 | Cc1ncc([C@H](CC(=O)O)n2ccc(CCCc3ccc4c(n3)NCCC4)n2)cn1 [Example 54, (S)-3-(2-Methylpyrimidin-5-yl)-3-(3-(3-(5,6,7,8-tetrahydro-1,8-naphthyridin-2-yl)propyl)-1H-pyrazol-1-yl)propanoic acid] | 8.14 | 7.74 | – | 9.00
9 | Cc1ncc(C(CC(=O)O)n2nccc2CCC[C@H]2CCc3cccnc3N2)cn1 (stereo partly drawn) [Example 87, 3-(2-methylpyrimidin-5-yl)-3-(5-(3-((S)-1,2,3,4-tetrahydro-1,8-naphthyridin-2-yl)propyl)-1H-pyrazol-1-yl)propanoic acid] | – | 5.86 | – | –
10 | Cc1ncc([C@H](CC(=O)O)n2ccc(CCC[C@@H]3CCc4cccnc4N3)n2)cn1 [Example 88, (S)-3-(2-methylpyrimidin-5-yl)-3-(3-(3-((R)-1,2,3,4-tetrahydro-1,8-naphthyridin-2-yl)propyl)-1H-pyrazol-1-yl)propanoic acid] | – | 6.77 | – | –
11 | COc1ncc([C@H](CC(=O)O)n2ccc(CCC[C@H]3CCc4cccnc4N3)n2)cn1 [Example 89, (S)-3-(2-methoxypyrimidin-5-yl)-3-(3-(3-((S)-1,2,3,4-tetrahydro-1,8-naphthyridin-2-yl)propyl)-1H-pyrazol-1-yl)propanoic acid] | – | 7.00 | – | –
12 | COc1ncc([C@H](CC(=O)O)n2ccc(CCC[C@@H]3CCc4cccnc4N3)n2)cn1 [Example 90, (S)-3-(2-methoxypyrimidin-5-yl)-3-(3-(3-((R)-1,2,3,4-tetrahydro-1,8-naphthyridin-2-yl)propyl)-1H-pyrazol-1-yl)propanoic acid] | – | 6.66 | – | –
13 | Cc1ncc(C(CC(=O)O)n2ccc(CCCc3ccc4c(n3)NCCCC4)n2)cn1 (stereo not drawn) [Example 98, 3-(2-methylpyrimidin-5-yl)-3-(3-(3-(6,7,8,9-tetrahydro-5H-pyrido[2,3-b]azepin-2-yl)propyl)-1H-pyrazol-1-yl)propanoic acid] | – | 6.23 | – | –
14 | O=C(O)C[C@@H](c1ccc(=O)n(Cc2ccccc2)c1)n1ccc(CCCc2ccc3c(n2)NCCC3)n1 [Example 109, (S)-3-(1-benzyl-6-oxo-1,6-dihydropyridin-3-yl)-3-(3-(3-(5,6,7,8-tetrahydro-1,8-naphthyridin-2-yl)propyl)-1H-pyrazol-1-yl)propanoic acid] | – | 8.38 | – | –
15 | O=C(O)C[C@@H](c1ccc(OCc2ccccc2)nc1)n1ccc(CCCc2ccc3c(n2)NCCC3)n1 [Example 110, (S)-3-(6-(benzyloxy)pyridin-3-yl)-3-(3-(3-(5,6,7,8-tetrahydro-1,8-naphthyridin-2-yl)propyl)-1H-pyrazol-1-yl)propanoic acid] | – | 8.03 | – | –
16 | O=C(O)C[C@@H](c1ccc(=O)n(CC2CC2)c1)n1ccc(CCCc2ccc3c(n2)NCCC3)n1 [Example 111, (S)-3-(1-(cyclopropylmethyl)-6-oxo-1,6-dihydropyridin-3-yl)-3-(3-(3-(5,6,7,8-tetrahydro-1,8-naphthyridin-2-yl)propyl)-1H-pyrazol-1-yl)propanoic acid] | – | 7.72 | – | –
17 | O=C(O)C[C@@H](c1ccc(OCC2CC2)nc1)n1ccc(CCCc2ccc3c(n2)NCCC3)n1 [Example 112, (S)-3-(6-(cyclopropylmethoxy)pyridin-3-yl)-3-(3-(3-(5,6,7,8-tetrahydro-1,8-naphthyridin-2-yl)propyl)-1H-pyrazol-1-yl)propanoic acid] | – | 8.46 | – | –
18 | COc1ccc(C(CC(=O)O)c2ccn(CCCc3ccc4c(n3)NCCC4)n2)cn1 (stereo not drawn) [Example 113, 3-(6-methoxypyridin-3-yl)-3-(1-(3-(5,6,7,8-tetrahydro-1,8-naphthyridin-2-yl)propyl)-1H-pyrazol-3-yl)propanoic acid] | – | 7.46 | – | –
19 | Cc1ncc([C@@H](CC(=O)O)n2cc(F)c(CCCc3ccc4c(n3)NCCC4)n2)cn1 [Example 114, (R)-3-(4-fluoro-3-(3-(5,6,7,8-tetrahydro-1,8-naphthyridin-2-yl)propyl)-1H-pyrazol-1-yl)-3-(2-methylpyrimidin-5-yl)propanoic acid] | – | 5.32 | – | –
20 | COc1ccc(C(CC(=O)O)c2cc(CCCc3ccc4c(n3)NCCC4)[nH]n2)cc1F (stereo not drawn) [Example 116, 3-(3-Fluoro-4-methoxyphenyl)-3-(5-(3-(5,6,7,8-tetrahydro-1,8-naphthyridin-2-yl)propyl)-1H-pyrazol-3-yl)propanoic acid] | – | 7.33 | – | –
21 | COc1ncc(C(CC(=O)O)c2nc(CCCc3ccc4c(n3)NCCC4)cs2)cn1 (stereo not drawn) [Example 145, 3-(2-methoxypyrimidin-5-yl)-3-(4-(3-(5,6,7,8-tetrahydro-1,8-naphthyridin-2-yl)propyl)thiazol-2-yl)propanoic acid] | – | 8.35 | – | –
22 | COc1ccc(C(CC(=O)O)c2csc(CCCc3ccc4c(n3)NCCC4)n2)cc1F (stereo not drawn) [Example 153, 3-(3-fluoro-4-methoxyphenyl)-3-(2-(3-(5,6,7,8-tetrahydro-1,8-naphthyridin-2-yl)propyl)thiazol-4-yl)propanoic acid] | – | 7.27 | – | –
23 | COc1ccc(C(CC(=O)O)c2nc(CCCc3ccc4c(n3)NCCC4)co2)cc1F (stereo not drawn) [Example 178, 3-(3-fluoro-4-methoxyphenyl)-3-(4-(3-(5,6,7,8-tetrahydro-1,8-naphthyridin-2-yl)propyl)oxazol-2-yl)propanoic acid] | – | 8.85 | – | –
24 | COc1ccc(C(CC(=O)O)c2nc(CCCCc3ccc4c(n3)NCCC4)c(C)o2)cc1F (stereo not drawn) [Example 181, 3-(3-fluoro-4-methoxyphenyl)-3-(5-methyl-4-(4-(5,6,7,8-tetrahydro-1,8-naphthyridin-2-yl)butyl)oxazol-2-yl)propanoic acid] | – | 5.97 | – | –
